Experiments:
MCF7 = assay: Antiproliferative activity against wildtype human MCF7 cells assessed as inhibition of cell proliferation incubated for 6 days in presence of beta-estradiol by CellTiter-Glo assay; assay type: functional, cell-based; details: MCF7, 144 h
[1] = Metabolic stability in human liver microsomes assessed as parent compound remaining incubated for 60 mins in presence of NADPH by LC-MS/MS analysis; assay type: ADME, Microsome; details: read-out: Stability
Estrogen receptor = target: T1, Estrogen receptor (Homo sapiens, UniProt P03372); assay: Induction of Estrogen receptor degradation in wildtype human MCF7 cells assessed as reduction in estrogen receptor level incubated for 24 hrs by Western blot analysis; assay type: cell-based
T1 sequence (P03372 whole entry): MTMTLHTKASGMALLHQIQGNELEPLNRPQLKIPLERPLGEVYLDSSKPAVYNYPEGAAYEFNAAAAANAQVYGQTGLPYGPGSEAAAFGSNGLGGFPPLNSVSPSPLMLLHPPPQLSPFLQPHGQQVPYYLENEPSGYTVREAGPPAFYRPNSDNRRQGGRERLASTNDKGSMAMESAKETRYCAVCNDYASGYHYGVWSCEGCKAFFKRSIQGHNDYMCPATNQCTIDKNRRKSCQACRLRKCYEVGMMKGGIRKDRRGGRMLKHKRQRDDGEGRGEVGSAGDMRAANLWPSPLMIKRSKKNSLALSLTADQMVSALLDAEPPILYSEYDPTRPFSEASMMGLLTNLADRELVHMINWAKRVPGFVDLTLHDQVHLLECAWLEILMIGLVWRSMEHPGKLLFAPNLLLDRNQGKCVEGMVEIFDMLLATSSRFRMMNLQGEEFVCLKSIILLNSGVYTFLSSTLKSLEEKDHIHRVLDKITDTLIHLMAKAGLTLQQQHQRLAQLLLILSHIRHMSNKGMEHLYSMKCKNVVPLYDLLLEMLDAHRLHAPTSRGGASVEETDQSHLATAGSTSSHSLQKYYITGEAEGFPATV

[2] = Metabolic stability in rat liver microsomes assessed as parent compound remaining incubated for 60 mins in presence of NADPH by LC-MS/MS analysis; assay type: ADME, Microsome; details: read-out: Stability

IC50 (MCF7) [nM] | remaining at 1 h [1] [%] | DC50 (Estrogen receptor) [nM] | remaining at 1 h [2] [%] | Compound
9.7 | 71.2 | 10.6 | 99.1 | C[C@@H]1Cc2c([nH]c3ccccc23)[C@@H](c2c(F)cc(NC3CN(CCCS(=O)(=O)CCCC(F)(F)C(F)(F)F)C3)cc2F)N1CC(F)(F)F
 | 24.9 |  | 53.7 | C[C@@H]1Cc2c([nH]c3ccccc23)[C@@H](c2c(F)cc(OC3CN(CC[S+]([O-])CCCC(F)(F)C(F)(F)F)C3)cc2F)N1CC(F)(F)F (some centres not stated)
 | 29.1 |  | 78 | C[C@@H]1Cc2c([nH]c3ccccc23)[C@@H](c2c(F)cc(NC3CN(CC[S+]([O-])CCCC(F)(F)C(F)(F)F)C3)cc2F)N1CC(F)(F)CO (some centres not stated)
0.9 | 60.1 | 1.2 | 79.3 | C[C@@H]1Cc2c([nH]c3ccccc23)[C@@H](c2c(F)cc(NC3CN(CCC[S+]([O-])CCCC(F)(F)C(F)(F)F)C3)cc2F)N1CC(F)(F)CO (some centres not stated)

Reference: ChEMBL document CHEMBL5528003 (Eur J Med Chem, 2024)
